Patent US6812335B1, “Human polypeptide receptors for lysophospholipids and sphingolipids and nucleic acids encoding the same” (The Regents of the University of California, priority 1999, dated 2004)
pEC50: −log10 of the molar value. “And” between values parts separate entries of the source, which are not always exact repeats. Equal values may be shown once. Read-outs that look alike come from different tables or passages of the source. Each block holds one molecule with its values, some of them ahead of it.

How the values were obtained:
[1] = system: MCF-7 BCCs; assay: SRE-firefly luciferase reporter assay in MCF-7 BCCs; type: cell-based, human; conditions: for maximal increase of mean luciferase luminometric activity: 10^−10 M to 10^−6 M lipid, 4 h
[2] = system: MDA-MB-453 BCCs; assay: SRE-firefly luciferase reporter assay in MDA-MB-453 BCCs; type: cell-based, human; conditions: for mean maximal increase of luciferase luminometric activity: 10^−10 M to 10^−6 M lipid, 4 h
[3] = system: MCF-7 BCC; assay: MCF-7 BCC secretion of IGF-II; type: cell-based, human
[4] = target: T1, Edg4 (Homo sapiens, UniProt Q9HBW0); assay: SRE-luciferase reporter gene assay in Edg4-transfected Jurkat cells; type: cell-based
T1 construct: The Edg4 protein consists of 382 amino acids with an estimated molecular weight of 42,626 daltons; expressed in transfected cells; host or cells: Jurkat leukemic T cells, transient transfection with Edg4/EF3 (pCDEF3 vector)

[5] = target: T2, Edg2 (Homo sapiens, UniProt Q92633); assay: SRE-luciferase reporter gene assay in Edg2-transfected Jurkat cells; type: cell-based; conditions: for pEC50: 10-h incubation, read-out: EC50 of activation of SRE-driven reporter gene
T2 construct: the 1.1-kb cDNA coding region of human Edg2 was cleaved from Edg2/RSV (An et al., supra) and also subcloned into pCDEF3; expressed in transfected cells; host or cells: Jurkat leukemic T cells, transient transfection with Edg2/EF3 (pCDEF3 vector)

[6] = system: Tsup-1 cells; conditions: cited from earlier work
[7] = system: Tsup-1 cells; assay: Anti-Fas antibody-induced apoptosis of Tsup-1 cell transfectants (DNA endlabeling)
[8] = system: Edg4; assay: SRE-luciferase reporter gene assay in Edg4-transfected Jurkat cells; type: cell-based, human; conditions: Edg4 versus Edg2 transfectants
[9] = system: Jurkat cells transfected with empty pCDEF3 vector; type: cell-based; conditions: control Jurkat cells
[10] = target: T1, Edg4; assay: [3H]LPA receptor binding assay in Edg4-transfected Jurkat cells; conditions: Edg4 transfectants
Experimental: (§1) Jurkat T cells (2×10^7 in OPTI-MEM) were transfected with 2 μg of Edg4/EF3 or empty pCDEF3 vector for 4 hours at 37° C. using Lipofectin (Life Technologies, Inc). The transfected cells were maintained in RPMI 1640 medium containing 10% fetal bovine serum for 12 hours at 37° C. and washed three times with phosphate-buffered saline (PBS) before assessment of binding. Duplicate 0.2-ml aliquots of 2×10^6 cells were incubated with 200,000 cpm of ]^3H] LPA in 0.25% bovine serum albumnin-phosphate-buffered saline binding buffer for 45 minutes at 0° C. The final concentration of [^3H]LPA in the binding incubations was 10 nM. The binding cell suspensions were passed through GFIC filters that were washed with 12 ml of ice-cold PBS containing 0.05% Tween-20, air-dried, and added to scintillation fluid for quantification of radioactivity bound to the cells. Total and nonspecific binding were evaluated in the absence and the presence of 10 μM nonradioactive LPA, respectively. Specific binding was calculated from the difference in cpm between total binding and nonspecific binding.

[11] = system: control vector-transfected Jurkat cells; assay: [3H]LPA binding in control vector-transfected Jurkat cells
Experimental: as §1

[12] = Edg-2 & -4 antisense pretreatment, lipid 10^−8 M
[13] = Sham transfectants, lipid 10^−8 M, anti-Fas alone = 100%
[14] = Sham transfectants, lipid 10^−9 M, anti-Fas alone = 100%
[15] = 1 μM lipid, Edg4-transfected Jurkat cells
[16] = 1 μM lipid, Edg2-transfected Jurkat cells

T2 sequence (Q92633 whole entry): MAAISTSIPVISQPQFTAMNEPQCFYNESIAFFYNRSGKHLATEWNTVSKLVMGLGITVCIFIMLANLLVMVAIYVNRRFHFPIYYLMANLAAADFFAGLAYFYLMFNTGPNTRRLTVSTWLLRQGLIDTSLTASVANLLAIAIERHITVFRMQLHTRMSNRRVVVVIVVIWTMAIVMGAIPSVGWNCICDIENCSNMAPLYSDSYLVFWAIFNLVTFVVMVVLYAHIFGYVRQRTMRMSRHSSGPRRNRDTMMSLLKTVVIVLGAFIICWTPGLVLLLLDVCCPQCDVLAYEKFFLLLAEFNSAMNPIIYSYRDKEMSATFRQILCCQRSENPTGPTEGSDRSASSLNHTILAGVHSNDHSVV
T1 sequence (Q9HBW0 with tags, fused parts or gaps): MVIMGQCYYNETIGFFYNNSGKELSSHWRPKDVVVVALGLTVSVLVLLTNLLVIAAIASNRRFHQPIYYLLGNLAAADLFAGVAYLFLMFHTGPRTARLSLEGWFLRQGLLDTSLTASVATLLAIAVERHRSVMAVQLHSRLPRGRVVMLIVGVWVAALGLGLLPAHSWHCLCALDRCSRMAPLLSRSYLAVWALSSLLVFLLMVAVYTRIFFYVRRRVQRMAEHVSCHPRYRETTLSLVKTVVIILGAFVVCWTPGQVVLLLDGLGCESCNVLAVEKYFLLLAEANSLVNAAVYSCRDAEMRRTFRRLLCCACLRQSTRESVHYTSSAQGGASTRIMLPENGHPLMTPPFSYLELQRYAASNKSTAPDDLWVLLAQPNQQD

Molecule: COc1cccc(-c2cc(=O)c3ccccc3o2)c1N [MEK, 2′-amino-3′-methoxyflavone]
percentage inhibition of the control SRE reporter response to LPA ([1]; 10^−7 M LPA, serum-free DMEM): 41%
percentage inhibition of the control SRE reporter response to S1P ([1]; 10^−7 M S1P, serum-free DMEM): 37%
percentage inhibition of the control SRE reporter response to LPA ([2]; 10^−7 M LPA, serum-free DMEM): 69%
percentage inhibition of the control SRE reporter response to S1P ([2]; 10^−7 M S1P, serum-free DMEM): 61%
inhibition of LPA- and S1P-stimulated secretion of IGF-II [3]: inhibited

Molecule: CCCCCCCCCCCCC/C=C/[C@@H](O)[C@@H](N)COP(=O)(O)O [S1P, sphingosine 1-phosphate]
increase in luciferase expression [4]: failed to generate significant increases
increase in luciferase expression [5]: failed to generate significant increases
maximal increase of mean luciferase luminometric activity [1]: ≤ 85 fold
mean maximal increase of luciferase luminometric activity [2]: 26 fold
effect on secretion of IGF-II [3]: Stimulation
effect on apoptosis evoked by C6-ceramide [6]: suppressed significantly
effect on apoptosis induced by anti-Fas antibody and a combination of anti-CD3 and anti-CD28 antibodies [6]: prevent apoptosis
percentage of control apoptosis [7, 12]: 22%
percentage of control apoptosis ([7]; Edg-3 & -5 antisense pretreatment, lipid 10^−8 M): 39% and 33%
percentage of control apoptosis ([7]; Edg-3 & -5 antisense pretreatment, lipid 10^−9 M): 53%
percentage of control apoptosis [7, 13]: 18%
percentage of control apoptosis [7, 14]: 30%

Molecule: Lysophosphatidic acid [LPA]
magnitude of evoked SRE-driven reporter activation of Edg4 relative to that of Edg2 [8]: approximately four times higher
pEC50 ([5]; Edg2-transfected Jurkat cells): ~8.00
change in SRE-luciferase response [9]: minimal changes
number of LPA-binding sites (receptor density) [10]: 33,000±3200
number of LPA-binding sites (receptor density) [11]: 15,000±1300
maximal increase of mean luciferase luminometric activity [1]: up to 37 fold
mean maximal increase of luciferase luminometric activity [2]: 24 fold
effect on secretion of IGF-II [3]: Stimulation
effect on apoptosis evoked by C6-ceramide [6]: not
effect on apoptosis induced by anti-Fas antibody and a combination of anti-CD3 and anti-CD28 antibodies [6]: prevent apoptosis
percentage of control apoptosis [7, 12]: 61%
percentage of control apoptosis ([7]; Edg-2 & -4 antisense pretreatment, lipid 10^−9 M): 69%
percentage of control apoptosis [7, 13]: 31%
percentage of control apoptosis [7, 14]: 51%

Molecule: phosphatidic acid [PA]
pEC50 ([4]; Edg4-transfected Jurkat cells, 10-h incubation, read-out: EC50 of activation of SRE-driven reporter gene): ≤ 6.30
magnitude of evoked SRE-driven reporter activation of Edg4 relative to that of Edg2 [8]: approximately four times higher
pEC50 ([5]; Edg2-transfected Jurkat cells): ≤ 6.30

Second part, the molecule after the results:

increase in luciferase expression [4, 15]: failed to generate significant increases
increase in luciferase expression [5, 16]: failed to generate significant increases
Molecule: lysophosphatidyl-choline

increase in luciferase expression [4, 15]: failed to generate significant increases
increase in luciferase expression [5, 16]: failed to generate significant increases
Molecule: lysophosphatidyl-ethanolamine

increase in luciferase expression [4, 15]: failed to generate significant increases
increase in luciferase expression [5, 16]: failed to generate significant increases
Molecule: lysophosphatidyl-serine
